Data as given in ChEMBL document CHEMBL1201862, “PubChem BioAssay data set” (2004).
Where a name gives a salt, the structure may show the parent alone.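 Step 1: Grow cells in 96-well plates. Step 2: Expose to compound for 48 hours at 5 concentrations. Step 3: Interpolate endpoints linearly; if unreached, use highest concentration. GI50 marks 50% less growth.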 Active and inactive are the calls of the source. Cut-off read from the data, not from the text of the source: active = GI50 up to about 1.1 µM and inactive = higher.

Experiments:
Test in all cases: inhibition of tumour cell growth, NCI panel, 48 h
[1] = tested on: 786-0
[2] = tested on: RXF 393
[3] = tested on: HOP-92
[4] = tested on: OVCAR-3
[5] = tested on: U-251
[6] = tested on: Malme-3M
[7] = tested on: HL-60
[8] = tested on: HOP-62
[9] = tested on: HCT-15
[10] = tested on: COLO 205
[11] = tested on: MOLT-4
[12] = tested on: M14
[13] = tested on: SK-MEL-5
[14] = tested on: SK-MEL-2
[15] = tested on: SNB-19
[16] = tested on: SW-620
[17] = tested on: T47D
[18] = tested on: NCI/ADR-RES
[19] = tested on: MDA-MB-231
[20] = tested on: PC-3

| SMILES | GI50 [1] | GI50 [2] | GI50 [3] | GI50 [4] | GI50 [5] | GI50 [6] | GI50 [7] | GI50 [8] | GI50 [9] [µM] | GI50 [10] | GI50 [11] | GI50 [12] | GI50 [13] | GI50 [14] | GI50 [15] | GI50 [16] | GI50 [17] | GI50 [18] | GI50 [19] | GI50 [20] |
| --- | --- | --- | --- | --- | --- | --- | --- | --- | --- | --- | --- | --- | --- | --- | --- | --- | --- | --- | --- | --- |
| CNC(C)Cc1ccccc1OC (stereo unspecified) [METHOXYPHENAMINE HYDROCHLORIDE] | > 100 µM (inactive) | > 100 µM (inactive) | > 100 µM (inactive) | > 100 µM (inactive) | > 100 µM (inactive) | > 100 µM (inactive) | > 100 µM (inactive) | > 100 µM (inactive) | > 100 | > 100 µM (inactive) | > 100 µM (inactive) | > 100 µM (inactive) | > 100 µM (inactive) | > 100 µM (inactive) | > 100 µM (inactive) | > 100 µM (inactive) | – | – | – | – |
| O=C(CC(C(=O)c1cccs1)c1ccsc1)c1ccccc1 (stereo unspecified) | > 100 µM (inactive) | 61 µM (inactive) | > 100 µM (inactive) | > 100 µM (inactive) | > 100 µM (inactive) | – | – | > 100 µM (inactive) | 48.1 | > 100 µM (inactive) | 36.6 µM (inactive) | 34.9 µM (inactive) | 76.9 µM (inactive) | – | – | > 100 µM (inactive) | 24.7 µM (inactive) | 25.1 µM (inactive) | 17.5 µM (inactive) | – |
| Cc1ccc(NC(=O)c2cc(S(=O)(=O)Nc3n[nH]c(=O)[nH]3)c(SSc3cc(Cl)c(C(=O)Nc4ccc(C)cc4)cc3S(=O)(=O)Nc3n[nH]c(=O)[nH]3)cc2Cl)cc1 | > 100 µM (inactive) | – | > 100 µM (inactive) | > 100 µM (inactive) | > 100 µM (inactive) | > 100 µM (inactive) | > 100 µM (inactive) | > 100 µM (inactive) | > 100 | > 100 µM (inactive) | > 100 µM (inactive) | > 100 µM (inactive) | > 100 µM (inactive) | > 100 µM (inactive) | > 100 µM (inactive) | > 100 µM (inactive) | – | > 100 µM (inactive) | > 100 µM (inactive) | > 100 µM (inactive) |
| Cc1c2cc[n+](C)cc2c(C)c2c1oc1ccccc12 | 1.17 µM (inactive) | 15.2 µM (inactive) | 6.5 µM (inactive) | 2.65 µM (inactive) | 0.652 µM (active) | 1.6 µM (inactive) | 12 µM (inactive) | 2.06 µM (inactive) | > 87.3 | 3.51 µM (inactive) | 2.74 µM (inactive) | 14.6 µM (inactive) | 3.41 µM (inactive) | 4.13 µM (inactive) | 0.893 µM (active) | 3 µM (inactive) | – | > 100 µM (inactive) | 12.9 µM (inactive) | 6.38 µM (inactive) |
| [O-][N+]1=NC(c2ccccc2)=C1c1ccccc1 | > 50 µM (inactive) | > 50 µM (inactive) | > 50 µM (inactive) | > 50 µM (inactive) | > 50 µM (inactive) | > 50 µM (inactive) | 11.4 µM (inactive) | > 50 µM (inactive) | > 50 | > 50 µM (inactive) | > 50 µM (inactive) | > 50 µM (inactive) | > 50 µM (inactive) | > 50 µM (inactive) | > 50 µM (inactive) | > 50 µM (inactive) | – | > 50 µM (inactive) | > 50 µM (inactive) | > 50 µM (inactive) |
| O=C/C1=C/C2=Cc3ccccc3C=C(/C=C(/C=O)C1)C2 | 78.2 µM (inactive) | 28.1 µM (inactive) | 27.7 µM (inactive) | 37.5 µM (inactive) | 34.3 µM (inactive) | 90.4 µM (inactive) | 41.5 µM (inactive) | 74.8 µM (inactive) | 31.4 | > 100 µM (inactive) | 15.8 µM (inactive) | 43.4 µM (inactive) | 35.3 µM (inactive) | > 100 µM (inactive) | 44.9 µM (inactive) | 44.7 µM (inactive) | – | – | – | – |
| CCOC(=O)C(CNc1ccc(O)cc1)NC(=O)c1ccccc1 (stereo unspecified) | 64.3 µM (inactive) | > 100 µM (inactive) | > 100 µM (inactive) | > 100 µM (inactive) | > 100 µM (inactive) | > 100 µM (inactive) | 25.6 µM (inactive) | > 100 µM (inactive) | > 100 | > 100 µM (inactive) | 50.8 µM (inactive) | > 66.4 µM (inactive) | > 100 µM (inactive) | > 100 µM (inactive) | > 100 µM (inactive) | > 100 µM (inactive) | – | – | – | – |
| CCCC(=O)OC1C(CO)OC(n2cc(F)c(=O)[nH]c2=O)C1F (stereo unspecified) | 38.5 µM (inactive) | > 100 µM (inactive) | > 100 µM (inactive) | 54.6 µM (inactive) | 7.45 µM (inactive) | 42.6 µM (inactive) | 80.5 µM (inactive) | 4.5 µM (inactive) | > 100 | > 100 µM (inactive) | > 100 µM (inactive) | – | 53.2 µM (inactive) | > 100 µM (inactive) | – | > 100 µM (inactive) | > 100 µM (inactive) | 11.3 µM (inactive) | – | 92.3 µM (inactive) |
